Reference: the supplement of paper PMC10307832

Tests used:
Test in all cases: relative viability (nuclei count vs DMSO), 5 days (fraction); higher = more cells survive
HARA = test system: HARA
Outline: (§1)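 Five library-drug doses in √10 steps were combined with a fixed anchor-drug dose, or a single drug was given alone, by pin tool to lung cancer cell lines in 1536-well plates the day after seeding. Nuclei were stained and counted after 5 days. Relative viability is the nuclei count in treated wells over that in vehicle wells, taken as the median of duplicate plates.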

PC-14 = test system: PC-14
Outline: as §1

EKVX = test system: EKVX
Outline: as §1

NCI-H358 = test system: NCI-H358
Outline: as §1

NCI-H1993 = test system: NCI-H1993
Outline: as §1

UMC-11 = test system: UMC-11
Outline: as §1

NCI-H1395 = test system: NCI-H1395
Outline: as §1

NCI-H1355 = test system: NCI-H1355
Outline: as §1

NCI-H322M = test system: NCI-H322M
Outline: as §1

NCI-H2347 = test system: NCI-H2347
Outline: as §1

HOP-62 = test system: HOP-62
Outline: as §1

NCI-H647 = test system: NCI-H647
Outline: as §1

NCI-H522 = conditions: first compound 0.04 µM
Outline: as §1

## Clc1ccc(Nc2nnc(Cc3ccncc3)c3ccccc23)cc1 [Vatalanib] + N=C(N)NC(=N)NCCc1ccccc1 [Phenformin] (partner 250 µM)
HARA; first compound 0.04 µM
  relative viability: 0.452
HARA; first compound 0.1265 µM
  relative viability: 0.397
HARA; first compound 0.4 µM
  relative viability: 0.497
HARA; first compound 1.265 µM
  relative viability: 0.42
HARA; first compound 4 µM
  relative viability: 0.354
PC-14; first compound 0.04 µM
  relative viability: 0.552
PC-14; first compound 0.1265 µM
  relative viability: 0.466
PC-14; first compound 1.265 µM
  relative viability: 0.458
PC-14; first compound 4 µM
  relative viability: 0.541
EKVX; first compound 0.04 µM
  relative viability: 0.232
EKVX; first compound 0.1265 µM
  relative viability: 0.236
EKVX; first compound 0.4 µM
  relative viability: 0.205
EKVX; first compound 4 µM
  relative viability: 0.212
NCI-H358; first compound 0.04 µM
  relative viability: 0.32
NCI-H358; first compound 0.1265 µM
  relative viability: 0.304
NCI-H358; first compound 0.4 µM
  relative viability: 0.381
NCI-H358; first compound 1.265 µM
  relative viability: 0.367
NCI-H358; first compound 4 µM
  relative viability: 0.326
NCI-H1993; first compound 0.04 µM
  relative viability: 0.492
NCI-H1993; first compound 0.1265 µM
  relative viability: 0.533
NCI-H1993; first compound 0.4 µM
  relative viability: 0.601
NCI-H1993; first compound 1.265 µM
  relative viability: 0.482
NCI-H1993; first compound 4 µM
  relative viability: 0.534
UMC-11; first compound 0.04 µM
  relative viability: 0.311
UMC-11; first compound 0.1265 µM
  relative viability: 0.328
UMC-11; first compound 0.4 µM
  relative viability: 0.319
UMC-11; first compound 1.265 µM
  relative viability: 0.298
UMC-11; first compound 4 µM
  relative viability: 0.333
NCI-H1395; first compound 0.04 µM
  relative viability: 0.441
NCI-H1395; first compound 0.1265 µM
  relative viability: 0.419
NCI-H1395; first compound 0.4 µM
  relative viability: 0.437
NCI-H1395; first compound 1.265 µM
  relative viability: 0.399
NCI-H1395; first compound 4 µM
  relative viability: 0.449
NCI-H1355; first compound 0.04 µM
  relative viability: 0.511
NCI-H1355; first compound 0.1265 µM
  relative viability: 0.419
NCI-H1355; first compound 0.4 µM
  relative viability: 0.444
NCI-H1355; first compound 1.265 µM
  relative viability: 0.431
NCI-H1355; first compound 4 µM
  relative viability: 0.401
NCI-H322M; first compound 0.04 µM
  relative viability: 0.755
NCI-H322M; first compound 0.1265 µM
  relative viability: 0.789
NCI-H322M; first compound 0.4 µM
  relative viability: 0.826
NCI-H322M; first compound 1.265 µM
  relative viability: 0.685
NCI-H322M; first compound 4 µM
  relative viability: 0.759
NCI-H2347; first compound 0.04 µM
  relative viability: 0.323
NCI-H2347; first compound 0.1265 µM
  relative viability: 0.426
NCI-H2347; first compound 0.4 µM
  relative viability: 0.401
NCI-H2347; first compound 1.265 µM
  relative viability: 0.266
NCI-H2347; first compound 4 µM
  relative viability: 0.389
HOP-62; first compound 0.04 µM
  relative viability: 0.668
HOP-62; first compound 0.1265 µM
  relative viability: 0.65
HOP-62; first compound 0.4 µM
  relative viability: 0.649
HOP-62; first compound 1.265 µM
  relative viability: 0.624
HOP-62; first compound 4 µM
  relative viability: 0.633
NCI-H647; first compound 0.04 µM
  relative viability: 0.466
NCI-H647; first compound 0.1265 µM
  relative viability: 0.562
NCI-H647; first compound 0.4 µM
  relative viability: 0.521
NCI-H647; first compound 1.265 µM
  relative viability: 0.401
NCI-H647; first compound 4 µM
  relative viability: 0.54
NCI-H522
  relative viability: 0.699
